Where a name gives a salt, the structure may show the parent alone. Read-outs that look alike come from different tables or passages of the source.
Biological target: human cloned 5-HT6 receptors (Homo sapiens, UniProt P50406)
Assay: biochemical
Type: binding
Parameters: selectivity: reference not given here
[1] = [3H]-LSD, HeLa-5HT6 cell membranes, pH 7.7, 37° C., read-out: pKi (converted)
[2] = selective 5-HT6 receptor antagonist activity

Chain of human cloned 5-HT6 receptors (P50406 whole entry): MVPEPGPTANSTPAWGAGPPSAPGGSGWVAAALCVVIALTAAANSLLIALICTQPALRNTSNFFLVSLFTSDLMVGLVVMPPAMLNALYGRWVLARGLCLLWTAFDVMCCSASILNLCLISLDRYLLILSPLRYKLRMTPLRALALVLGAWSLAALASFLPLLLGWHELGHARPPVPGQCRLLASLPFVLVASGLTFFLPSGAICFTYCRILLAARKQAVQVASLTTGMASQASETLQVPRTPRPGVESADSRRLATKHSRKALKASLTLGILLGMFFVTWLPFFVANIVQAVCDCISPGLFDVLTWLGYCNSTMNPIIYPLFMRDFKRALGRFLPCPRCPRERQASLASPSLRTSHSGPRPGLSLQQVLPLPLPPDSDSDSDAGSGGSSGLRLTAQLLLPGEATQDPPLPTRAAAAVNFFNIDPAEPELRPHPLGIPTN

Row | SMILES | Ki [1] [nM] | selectivity [2] | Ki [nM] | selectivity | Ki (read-out: pKi (converted)) [nM]
1 | CCc1ccccc1NS(=O)(=O)c1ccc(OC)c(N2CCNCC2)c1.Cl [Compound 88, N-(2-Ethylphenyl)-4-methoxy-3-piperazin-1-ylbenzenesulfonamide hydrochloride] | < 3.16 | > 100 |  |  | 
2 | COc1ccc(S(=O)(=O)N2CCCc3ccc(C(F)(F)F)cc32)cc1N1CCNCC1 [Compound 29, 1-(4-Methoxy-3-piperizin-1-ylbenzenesulfonyl)-7-trifluoromethyl-1,2,3,4-tetrahydroquinoline hydrochloride] | < 3.16 | > 100 |  |  | 
3 | COc1ccc(S(=O)(=O)N2CCc3cccc(Cl)c3C2)cc1N1CCN(C)CC1.Cl [Compound 44, 8-Chloro-2-[4-methoxy-3-(4-methylpiperazin-1-yl)benzenesulfonyl]-1,2,3,4-tetrahydroisoquinoline hydrochloride] | < 3.16 | > 100 |  |  | 
4 | COc1ccc(Cl)cc1NS(=O)(=O)c1ccc(OC)c(N2CCNCC2)c1.Cl [Compound 132, N-(5-Chloro-2-methoxyphenyl)-4-methoxy-3-piperazin-1-ylbenzenesulfonamide hydrochloride] | < 3.16 | > 100 |  |  | 
5 | COc1ccc(S(=O)(=O)Nc2ccccc2-c2ccccc2)cc1N1CCNCC1.Cl [Compound 113, N-Biphenyl-2-yl-4-methoxy-3-piperazin-1-ylbenzenesulfonamide hydrochloride] | < 3.16 | > 100 |  |  | 
6 | C=Cc1ccc(NS(=O)(=O)c2ccc(OC)c(N3CCN(C)CC3)c2)cc1.Cl [Compound 63, 4-Methoxy-3-(4-methylpiperazin-1-yl)-N-(4-vinylphenyl)benzenesulfonamide hydrochloride] | < 3.16 | > 100 |  |  | 
7 | COc1ccc(S(=O)(=O)Nc2cccc(Br)c2)cc1N1CCN(C)CC1.Cl [Compound 3, N-(3-Bromophenyl)-4-methoxy-3-(4-methylpiperazin-1-yl)benzene sulfonamide hydrochloride] | < 3.16 | > 100 |  |  | 
8 | C=C(C)c1ccccc1NS(=O)(=O)c1ccc(OC)c(N2CCNCC2)c1.Cl [Compound 104, N-(2-Isopropenylphenyl)-4-methoxy-3-piperazin-1-ylbenzenesulfonamide hydrochloride] | < 3.16 | > 100 |  |  | 
9 | COc1ccc(S(=O)(=O)Nc2ccc(Cl)c(C(F)(F)F)c2)cc1N1CCN(C)CC1.Cl [Compound 69, N-(4-Chloro-3-trifluoromethylphenyl)-4-methoxy-3-(4-methylpiperazin-1-yl)-benzenesulfonamide hydrochloride] | < 3.16 | > 100 |  |  | 
10 | COc1ccc(S(=O)(=O)Nc2ccccc2I)cc1N1CCN(C)CC1.Cl [Compound 53, N-(2-Iodophenyl)-4-methoxy-3-(4-methylpiperazin-1-yl)benzenesulfonamide hydrochloride] | < 3.16 | > 100 |  |  | 
11 | COc1ccc(S(=O)(=O)Nc2ccc(C)c(C)c2)cc1N1CCN(C)CC1.Cl [Compound 41, N-(3,4-Dimethylphenyl)-4-methoxy-3-(4-methylpiperazin-1-yl)-benzenesulfonamide hydrochloride] | < 3.16 | > 100 |  |  | 
12 | COc1ccc(S(=O)(=O)N2CCCc3ccc(C(F)(F)F)cc32)cc1N1CCN(C)CC1 [Compound 8, 1-[4-Methoxy-3-(4-methylpiperazin-1-yl)-benzenesulfonyl]-7-trifluoromethyl-1,2,3,4-tetrahydroquinoline] | < 3.16 | > 100 |  |  | 
13 | COc1ccc(S(=O)(=O)N2CCCc3c(Cl)cc(Cl)cc32)cc1N1CCN(C)CC1.Cl [Compound 73, 5,7-Dichloro-1-[4-methoxy-3-(4-methylpiperazin-1-yl)benzenesulfonyl]-1,2,3,4-tetrahydroquinoline hydrochloride] | < 3.16 | > 100 |  |  | 
14 | COc1ccc(S(=O)(=O)Nc2cc(Cl)c(Cl)cc2Cl)cc1N1CCNCC1.Cl [Compound 131, N-(2,4,5-Trichlorophenyl)-4-methoxy-3-piperazin-1-ylbenzenesulfonamide hydrochloride] | < 3.16 | > 100 |  |  | 
15 | COc1ccc(S(=O)(=O)N2CCc3c(OC)ccc(OC)c3C2)cc1N1CCN(C)CC1.Cl [Compound 21, 5,8-Dimethoxy-2-[4-methoxy-3-(4-methylpiperazin-1-yl)-benzenesulfonyl]-1,2,3,4-tetrahydroisoquinoline hydrochloride] | < 3.16 | > 100 |  |  | 
16 | COc1ccc(S(=O)(=O)Nc2ccccc2Br)cc1N1CCNCC1.Cl [Compound 91, N-(2-Bromophenyl)-4-methoxy-3-piperazin-1-ylbenzenesulfonamide hydrochloride] |  |  | < 3.16 | > 100 | 
17 | COc1ccc(S(=O)(=O)Nc2cc(Br)ccc2Br)cc1N1CCNCC1.Cl [Compound 100, N-(2,5-Dibromophenyl)-4-methoxy-3-piperazin-1-ylbenzenesulfonamide hydrochloride] | < 3.16 | > 100 |  |  | 
18 | COc1ccc(S(=O)(=O)Nc2ccc(C(C)(C)C)cc2)cc1N1CCNCC1.Cl [Compound 107, N-(4-tert-Butylphenyl)-4-methoxy-3-piperazin-1-ylbenzenesulfonamide hydrochloride] | < 3.16 | > 100 |  |  | 
19 | COc1ccc(S(=O)(=O)Nc2ccc(Br)c(C(F)(F)F)c2)cc1N1CCN(C)CC1.Cl [Compound 67, N-(4-Bromo-3-trifluoromethylphenyl)-4-methoxy-3-(4-methylpiperazin-1-yl)-benzenesulfonamide hydrochloride] | < 3.16 | > 100 |  |  | 
20 | COc1ccc(S(=O)(=O)Nc2ccc(I)cc2Cl)cc1N1CCN(C)CC1.Cl [Compound 54, N-(2-Chloro-4-iodophenyl)-4-methoxy-3-(4-methylpiperazin-1-yl)-benzenesulfonamide hydrochloride] | < 3.16 | > 100 |  |  | 
21 | COc1ccc(S(=O)(=O)Nc2ccc(F)cc2Cl)cc1N1CCN(C)CC1.Cl [Compound 45, N-(2-Chloro-4-fluorophenyl)-4-methoxy-3-(4-methylpiperazin-1-yl)-benzenesulfonamide hydrochloride] | < 3.16 | > 100 |  |  | 
22 | COc1ccc(S(=O)(=O)Nc2cccc(C(F)(F)F)c2)cc1N1CCNCC1.Cl [Compound 89, 4-Methoxy-3-piperazin-1-yl-N-(3-trifluoromethylphenyl)benzenesulfonamide hydrochloride] | < 3.16 | > 100 |  |  | 
23 | COc1ccc(S(=O)(=O)Nc2ccccc2C(C)C)cc1N1CCNCC1.Cl [Compound 79, N-(2-Isopropylphenyl)-4-methoxy-3-piperazin-1-yl-benzenesulfonamide hydrochloride] |  |  | < 3.16 | > 100 | 
24 | COc1ccc(S(=O)(=O)N2CCCc3ccc(Br)cc32)cc1N1CCNCC1.Cl [Compound 145, 7-Bromo-1-(4-methoxy-3-piperazin-1-ylbenzenesulfonyl)-1,2,3,4-tetrahydroquinoline hydrochloride] |  |  |  | > 100 | < 3.16
25 | COc1ccc(S(=O)(=O)Nc2ccccc2OC(F)(F)F)cc1N1CCN(C)CC1.Cl [Compound 32, N-(2-Trifluoromethoxyphenyl)-4-methoxy-3-(4-methylpiperazin-1-yl)-benzenesulfonamide hydrochloride] | < 3.16 | > 100 |  |  | 
26 | COc1ccc(S(=O)(=O)Nc2ccccc2SC)cc1N1CCNCC1.Cl [Compound 85, 4-Methoxy-N-(2-methylsulfanylphenyl)-3-piperazin-1-ylbenzenesulfonamide hydrochloride] | < 3.16 | > 100 |  |  | 

From patent US6316450A, “Compounds” (SmithKline Beecham p.l.c., priority 1997, dated 2001)
